Legend:
[1] = tested on: hepatitis B surface antigen; test: Antibody response to hepatitis B surface antigen with octadecyl amino acid immunoadjuvants, radioimmunoassay of sera; assay type: in vivo, BALB/c mice; conditions: 50 ng HBsAg i.m. day 1, boost 35 ng day 21, 100 µg octadecyl amino acid
Protocol: BALB/c mice were immunized with 50 ng of hepatitis B surface antigen in the presence of adjuvant for the non-control mice and in the absence of adjuvant for the control mice. The hepatitis B surface antigen was obtained from 3T3 cells transfected with the gene for the surface antigen. 100 µg of octadecyl amino acid was complexed with the polypeptide as described in Example 2. This mixture, in a total volume of 0.1 ml, was injected on day 1 using an intramuscular route, and the mice were bled on days 7, 14, 21, 28, 35, 42 and 61. The mice were boosted with 35 ng of the polypeptide on day 21.
The antibody concentration in the sera was determined by radioimmunoassay. The antibody concentration was estimated by comparison with a standard curve obtained using a monoclonal antibody.

HIV-1 polypeptide = test: Antibody response to HIV-1 polypeptide in baboons with octadecyl tyrosine hydrochloride, radioimmunoassay; assay type: in vivo
Protocol: 3) Experiments in baboons Two baboons were immunized with 300 µg of chemically synthesized polypeptide, corresponding to the amino acid sequence of residues 503-535 of HIV-1, coupled to Keyhole Limpet Hemocyanin. 500 µg of octadecyl tyrosine hydrochloride was complexed with the polypeptide, as described in Example 2. This mixture in a total volume of 1.0 ml was injected on day 1 and again on day 35. The animals were bled 3 days before the first immunization, and on days 14, 32 and 49. The same experiment was undertaken with another two baboons, but with polypeptide corresponding to the amino acid sequence 526-535 of HIV-1. The antibody concentration in the sera was indirectly measured by radioimmunoassay. Tiltration was undertaken by incubation of samples on plates coated with peptide-albumin conjugate, and reaction with iodine-125 labelled rabbit anti-monkey immunoglobulin.

CCCCCCCCCCCCCCCCCCOC(=O)CN
Anti-HBsAg antibody concentration ([1]; day 7): 47 ng/mL
Anti-HBsAg antibody concentration ([1]; day 14): 38 ng/mL
Anti-HBsAg antibody concentration ([1]; day 21): 51 ng/mL
Anti-HBsAg antibody concentration ([1]; day 28): 147 ng/mL
Anti-HBsAg antibody concentration ([1]; day 35): 748 ng/mL
Anti-HBsAg antibody concentration ([1]; day 61): 301 ng/mL

CCCCCCCCCCCCCCCCCCOC(=O)C(N)CC(C)C (centres unmarked)
Anti-HBsAg antibody concentration ([1]; day 7): 48 ng/mL
Anti-HBsAg antibody concentration ([1]; day 14): 42 ng/mL
Anti-HBsAg antibody concentration ([1]; day 21): 37 ng/mL
Anti-HBsAg antibody concentration ([1]; day 28): 160 ng/mL
Anti-HBsAg antibody concentration ([1]; day 35): 590 ng/mL
Anti-HBsAg antibody concentration ([1]; day 61): 496 ng/mL

CCCCCCCCCCCCCCCCCCOC(=O)C1CCCN1 (centres unmarked)
Anti-HBsAg antibody concentration ([1]; day 7): 49 ng/mL
Anti-HBsAg antibody concentration ([1]; day 14): 35 ng/mL
Anti-HBsAg antibody concentration ([1]; day 21): 41 ng/mL
Anti-HBsAg antibody concentration ([1]; day 28): 72 ng/mL
Anti-HBsAg antibody concentration ([1]; day 35): 409 ng/mL
Anti-HBsAg antibody concentration ([1]; day 61): 168 ng/mL

CCCCCCCCCCCCCCCCCCOC(=O)CCN
Anti-HBsAg antibody concentration ([1]; day 7): 31 ng/mL
Anti-HBsAg antibody concentration ([1]; day 14): 45 ng/mL
Anti-HBsAg antibody concentration ([1]; day 21): 44 ng/mL
Anti-HBsAg antibody concentration ([1]; day 28): 120 ng/mL
Anti-HBsAg antibody concentration ([1]; day 35): 337 ng/mL
Anti-HBsAg antibody concentration ([1]; day 61): 373 ng/mL

CCCCCCCCCCCCCCCCCCOC(=O)C(N)CCCCN (centres unmarked) [Octadecyl Lysine]
Anti-HBsAg antibody concentration ([1]; day 7): 33 ng/mL
Anti-HBsAg antibody concentration ([1]; day 14): 55 ng/mL
Anti-HBsAg antibody concentration ([1]; day 21): 39 ng/mL
Anti-HBsAg antibody concentration ([1]; day 28): 51 ng/mL
Anti-HBsAg antibody concentration ([1]; day 35): 67 ng/mL
Anti-HBsAg antibody concentration ([1]; day 61): 53 ng/mL

H-Val-Ala-Pro-Thr-Lys-Ala-Lys-Arg-Arg-Val-Val-Gln-Arg-Glu-Lys-Arg-Ala-Val-Gly-Ile-Gly-Ala-Leu-Phe-Leu-Gly-Phe-Leu-Gly-Ala-Ala-Gly-Ser- (VAPTKAKRRVVQREKRAVGIGALFLGFLGAAGS; printed: Val-Ala-Pro-Thr-Lys-Ala-Lys-Arg-Arg-Val-Val-Gln-Arg-Glu-Lys-Arg-Ala-Val-Gly-Ile-Gly-Ala-Leu-Phe-Leu-Gly-Phe-Leu-Gly-Ala-Ala-Gly-Ser-) [503-535]
Antibody response to HIV-1 polypeptide (HIV-1 polypeptide; ANIMAL 1, day 14, 300 µg polypeptide-KLH + 500 µg octadecyl tyrosine hydrochloride on day 1 and 35, background subtracted): 2004 CPM
Antibody response to HIV-1 polypeptide (HIV-1 polypeptide; ANIMAL 1, day 32, 300 µg polypeptide-KLH + 500 µg octadecyl tyrosine hydrochloride on day 1 and 35, background subtracted): 2185 CPM
Antibody response to HIV-1 polypeptide (HIV-1 polypeptide; ANIMAL 1, day 49, 300 µg polypeptide-KLH + 500 µg octadecyl tyrosine hydrochloride on day 1 and 35, background subtracted): 5948 CPM
Antibody response to HIV-1 polypeptide (HIV-1 polypeptide; ANIMAL 1, day -3 (bled before the first immunization), after subtraction of background on bovine serum albumin coated plates): 1020 CPM
Antibody response to HIV-1 polypeptide (HIV-1 polypeptide; ANIMAL 2, day 14, 300 µg polypeptide-KLH + 500 µg octadecyl tyrosine hydrochloride on day 1 and 35, background subtracted): 2160 CPM
Antibody response to HIV-1 polypeptide (HIV-1 polypeptide; ANIMAL 2, day 32, 300 µg polypeptide-KLH + 500 µg octadecyl tyrosine hydrochloride on day 1 and 35, background subtracted): 2121 CPM
Antibody response to HIV-1 polypeptide (HIV-1 polypeptide; ANIMAL 2, day 49, 300 µg polypeptide-KLH + 500 µg octadecyl tyrosine hydrochloride on day 1 and 35, background subtracted): 4470 CPM
Antibody response to HIV-1 polypeptide (HIV-1 polypeptide; ANIMAL 2, day -3 (bled before the first immunization), after subtraction of background on bovine serum albumin coated plates): 1530 CPM

Octadecyl Forphenicine
Anti-HBsAg antibody concentration ([1]; day 7): 100 ng/mL
Anti-HBsAg antibody concentration ([1]; day 14): 112 ng/mL
Anti-HBsAg antibody concentration ([1]; day 21): 116 ng/mL
Anti-HBsAg antibody concentration ([1]; day 28): 908 ng/mL
Anti-HBsAg antibody concentration ([1]; day 35): 592 ng/mL
Anti-HBsAg antibody concentration ([1]; day 61): 355 ng/mL

Octadecyl Forphenicinol
Anti-HBsAg antibody concentration ([1]; day 7): 31 ng/mL
Anti-HBsAg antibody concentration ([1]; day 14): 40 ng/mL
Anti-HBsAg antibody concentration ([1]; day 21): 26 ng/mL
Anti-HBsAg antibody concentration ([1]; day 28): 65 ng/mL
Anti-HBsAg antibody concentration ([1]; day 35): 306 ng/mL
Anti-HBsAg antibody concentration ([1]; day 61): 98 ng/mL

Reference: patent EP0597838B1, “VACCINE COMPOSITIONS” (NORTH AMERICAN VACCINE, INC., priority 1990, dated 1991)
